# Measured values from patent US20250197399A1, “COMPOUNDS, COMPOSITIONS, AND METHODS” (Tenvie Therapeutics, Inc., priority 2022, published 2025).
# Like-named read-outs stand apart in the source and are kept apart here.
# Test system: NLRP3
# Experiment: IL-1β secretion assay in PMA-differentiated, LPS/nigericin-stimulated THP-1 cells (ELISA)
# Format: cell-based
# Details: 25 ng/mL LPS then nigericin, IL-1β in supernatant
# Description: Compounds as provided herein were tested in the following assay. Cell culture medium employed contained RPMI 1640 medium (89%), FBS (10%), Pen/Strep (1%), and 2-mercaptoethanol (0.05 mM). Freezing medium was made up of 90% FBS and 10% DMSO. THP-1 cells were removed from the liquid nitrogen and placed into a 37° C. water bath to thaw, until signs of ice dissipated. The cells were then added to 9 mL of warm cell culture medium and centrifuged for 5 minutes at 1000 rpm. The supernatant was discarded, and the cells were resuspended in new cell culture medium. THP-1 cells were then split and cultured in the cell culture medium, being passaged every 2-3 days with the cell density will be maintained between 5×10^5 and 1.5×10^6 viable cells/mL.
# PMA was dissolved in DMSO to make a stock solution at 5 mg/ml and stored in 10 μl aliquots at −20° C. for single use. PMA is added to normal growth medium. LPS was diluted with 1 mL of water solution to provide a 1 mg/mL stock solution and stored in 15 μL aliquots at −20° C. for single use. Nigericin is diluted in ice cold 100% ethanol to 5 mg/ml (6.7 mM) and stored in 75 μL aliquots at −20° C. for single use. Serum-free media contains RPMI 1640 medium (99%), Pen/Strep (1%), and 2-mercaptoethanol (0.05 mM). The two control conditions used to qualify and normalize test compound dose-response curves were as follows: High Control=25 ng/mL LPS, […], 0.5% DMSO, Low Control=25 ng/mL, LPS, 0.5% DMSO.
# THP-1 cells were diluted to provide a suspension at a concentration of 1.0×10^6 cells/mL with the total volume of suspension required to enable the desired number of assay plates. The growth media was supplemented with PMA (5 ng/mL final concentration) and the cells were incubated at 37° C. under a humidified atmosphere of 5% CO2 for 40 h.
# All media was carefully aspirated from each culture flask. The cells were washed carefully with 1×DPBS. The cells were then briefly digested with trypsin LE for 5 minutes at 23° C. and immediately resuspended in cell growth media. After resuspension, the cells were centrifuged at 1000 rpm for 3 minutes and the supernatant was discarded. The cells were resuspended in DPBS and once again centrifuged at 1000 rpm for 5 minutes. The supernatant was discarded and the cell pellet was resuspended in serum-free media supplemented with LPS (25 ng/mL final concentration) to enable the distribution of 30K THP-1 cells within 45 μL of media into each well of 384-well PDL-coated plates. The 384-well plates were then incubated at 37° C. under a humidified atmosphere of 5% CO2 for 2 h. Following this period, test compounds were dispensed by Tecan across the desired concentration range with all wells normalized to a final 0.5% DMSO concentration. The plates were then then incubated at 37° C. under a humidified atmosphere of 5% CO2 for 1 h. Following this period, 5 μL of the 5 mg/mL nigericin stock solution was added to each of the appropriate wells and plates were centrifuged at 1000 rpm for 30 seconds. The plates were the immediately reintroduced to the incubator at 37° C. under a humidified atmosphere of 5% CO2 for 2 h. After this time, 35 μL/well of supernatant was collected and transferred into v-bottom plate and centrifuged at 1000 rpm for 1 minute. These supernatant aliquots were analyzed using an IL-Iβ detection kit as described below. If needed, the test samples could be snap frozen and stored at −80° C. until analyzed.
# To prepare each ELISA plate, capture antibody (mAb Mt175) was diluted with PBS to a final concentration of […] and then 20 μL of this solution was added to each well of the ELISA plate. Each plate was allowed to incubate overnight at 4° C. The next day, the capture antibody solution was removed and discarded. Each ELISA plate was washed 4 times with PBST followed by the addition of 25 µL/well of blocking buffer (Licor-927-40010) supplemented with 0.1% Tween 20. Each ELISA plate was then allowed to incubate for 1 hour at 23° C. […]
# [1] = Homo sapiens, THP-1, THP-1 cells, read-out: Activity (IC50 class)
# [2] = THP-1 cells, read-out: Activity
# [3] = THP-1 cells, read-out: Activity (IC50 class)
# [4] = Homo sapiens, THP-1, THP-1 cells, read-out: Activity
SMILES,IC50 [1],IC50 [2],IC50 [3],IC50 [4]
"C[C@]1(O)C[C@@H](NC(=O)CN2CC3(CC3(F)F)c3cc(C(F)(F)F)ccc3C2=O)C1 (single isomer, unassigned) [Example 52, 2-[1′,1′-difluoro-1-oxo-6-(trifluoromethyl)spiro[3H-isoquinoline-4,2′-cyclopropane]-2-yl]-N-(3-cis-hydroxy-3-methylcyclobutyl)acetamide]",,22400 nM,> 10000 nM,
"C[C@]1(O)C[C@@H](NC(=O)CN2CC3(CC3(F)F)c3cc(C(F)(F)F)ccc3C2=O)C1 (single isomer, unassigned) [Example 53, 2-[1′,1′-difluoro-1-oxo-6-(trifluoromethyl)spiro[3H-isoquinoline-4,2′-cyclopropane]-2-yl]-N-(3-cis-hydroxy-3-methylcyclobutyl)acetamide]",,472 nM,< 1000 nM,
"O=C(CN1CC2(CC2)c2cc(Br)ccc2C1=O)NC1CC(O)(C2CC2)C1 (single isomer, unassigned) [Example 56, 2-(6-bromo-1-oxospiro[3H-isoquinoline-4,1′-cyclopropane]-2-yl)-N-(3-cyclopropyl-3-hydroxycyclobutyl)acetamide]",,363 nM,< 1000 nM,
"O=C(CN1CC2(CC2)c2cc(Br)ccc2C1=O)NC1CC(O)(C2CC2)C1 (single isomer, unassigned) [Example 57, 2-(6-bromo-1-oxospiro[3H-isoquinoline-4,1′-cyclopropane]-2-yl)-N-(3-cyclopropyl-3-hydroxycyclobutyl)acetamide]",,11100 nM,> 10000 nM,
"O=C(CN1CC2(CC2(F)F)c2cc(Br)ccc2C1=O)Nc1ncc2cn[nH]c2n1 (single isomer, unassigned) [Example 64, 2-(6-bromo-1′,1′-difluoro-1-oxospiro[3H-isoquinoline-4,2′-cyclopropane]-2-yl)-N-(1H-pyrazolo[3,4-d]pyrimidin-6-yl)acetamide]",< 1000 nM,8 nM,,
"O=C(CN1CC2(CC2(F)F)c2cc(Br)ccc2C1=O)Nc1ncc2cn[nH]c2n1 (single isomer, unassigned) [Example 65, 2-(6-bromo-1′,1′-difluoro-1-oxospiro[3H-isoquinoline-4,2′-cyclopropane]-2-yl)-N-(1H-pyrazolo[3,4-d]pyrimidin-6-yl)acetamide]",,504 nM,< 1000 nM,
"C[C@]1(O)C[C@@H](NC(=O)CN2C[C@]3(C[C@H]3F)c3c(ccc(I)c3F)C2=O)C1 [Example 5, N-(3-cis-hydroxy-3-methylcyclobutyl)-2-[(2′s,4r)-2′,5-difluoro-6-iodo-1-oxospiro[3H-isoquinoline-4,1′-cyclopropane]-2-yl]acetamide]",< 1000 nM,,,2 nM
"C[C@]1(O)C[C@@H](NC(=O)CN2C[C@]3(C[C@H]3F)c3c(ccc(C4CC4)c3F)C2=O)C1 [Example 6, N-(3-cis-hydroxy-3-methylcyclobutyl)-2-[(2′s,4r)-2′,5-difluoro-6-cyclopropyl-1-oxospiro[3H-isoquinoline-4,1′-cyclopropane]-2-yl]acetamide]",< 1000 nM,,,72 nM
"O=C(CN1CC(C(F)(F)F)c2cc(I)ccc2C1=O)Nc1ncc(Cl)cn1 (stereo not shown) [Example 7, N-(5-chloropyrimidin-2-yl)-2-(6-iodo-1-oxo-4-(trifluoromethyl)-3,4-dihydroisoquinolin-2(1H)-yl)acetamide]",< 1000 nM,,,17 nM
"Cc1cnc(NC(=O)CN2CC(C(F)(F)F)c3cc(I)ccc3C2=O)nc1 (stereo not shown) [Example 8, 2-(6-iodo-1-oxo-4-(trifluoromethyl)-3,4-dihydroisoquinolin-2(1H)-yl)-N-(5-methylpyrimidin-2-yl)acetamide]",< 1000 nM,,,44 nM
"Cc1cnc(NC(=O)CN2CC(C(F)(F)F)c3cc(C)ccc3C2=O)nc1 (stereo not shown) [Example 9, 2-(6-methyl-1-oxo-4-(trifluoromethyl)-3,4-dihydroisoquinolin-2(1H)-yl)-N-(5-methylpyrimidin-2-yl)acetamide]",1000 to 10000 nM,,,1540 nM
"O=C(CN1CC2(CC2)c2cc(Br)ccc2C1=O)Nc1ncc2cn[nH]c2n1 [Example 42, 2-(6-bromo-1-oxo-spiro[3H-isoquinoline-4,1′-cyclopropane]-2-yl)-N-(1H-pyrazolo[3,4-d]pyrimidin-6-yl)acetamide]",< 1000 nM,,,61 nM
"O=C(CN1CC2(CC2)c2c(ccc(Br)c2F)C1=O)Nc1ncc2cn[nH]c2n1 [Example 46, 2-(6-bromo-5-fluoro-1-oxospiro[3H-isoquinoline-4,1′-cyclopropane]-2-yl)-N-(1H-pyrazolo[3,4-d]pyrimidin-6-yl)acetamide]",< 1000 nM,,,38 nM
"O=C(CN1CC2(CC2)c2cc(C(F)(F)F)ccc2C1=O)Nc1ncc2cn[nH]c2n1 [Example 51, 2-[1-oxo-6-(trifluoromethyl)spiro[3H-isoquinoline-4,1′-cyclopropane]-2-yl]-N-(1H-pyrazolo[3,4-d]pyrimidin-6-yl)acetamide]",< 1000 nM,,,181 nM

# Continued, values first:
IC50 [1],IC50 [2],IC50 [3],IC50 [4],SMILES
1000 to 10000 nM,1960 nM,,,"O=C(CN1C[C@]2(C[C@H]2F)c2cc(C(F)(F)F)ccc2C1=O)Nc1nc2ccccn2n1 (single isomer, unassigned) [Example 49, 2-[(2′s,4r)-2′-fluoro-1-oxo-6-(trifluoromethyl)spiro[3H-isoquinoline-4,1′-cyclopropane]-2-yl]-N-([1,2,4]triazolo[1,5-a]pyridin-2-yl)acetamide]"
,184 nM,< 1000 nM,,"O=C(CN1C[C@]2(C[C@H]2F)c2cc(C(F)(F)F)ccc2C1=O)Nc1nc2ccccn2n1 (single isomer, unassigned) [Example 50, 2-[(2′s,4r)-2′-fluoro-1-oxo-6-(trifluoromethyl)spiro[3H-isoquinoline-4,1′-cyclopropane]-2-yl]-N-([1,2,4]triazolo[1,5-a]pyridin-2-yl)acetamide]"
< 1000 nM,,,24 nM,"O=C(CN1C[C@]2(C[C@H]2F)c2cc(C3(F)CC3)ccc2C1=O)Nc1ncc(C(F)(F)F)cn1 [Example 1, 2-[(2′R,4S)-2′-fluoro-6-(1-fluorocyclopropyl)-1-oxospiro[3H-isoquinoline-4,1′-cyclopropane]-2-yl]-N-(5-(trifluoromethyl)pyrimidin-2-yl)acetamide]"
< 1000 nM,,,18 nM,"Cc1cnc(NC(=O)CN2C[C@]3(C[C@H]3F)c3cc(C4(F)CC4)ccc3C2=O)nc1 [Example 2, 2-[(2′R,4S)-2′-fluoro-6-(1-fluorocyclopropyl)-1-oxospiro[3H-isoquinoline-4,1′-cyclopropane]-2-yl]-N-(5-methylpyrimidin-2-yl)acetamide]"
< 1000 nM,,,17 nM,"N#Cc1cnc(NC(=O)CN2C[C@]3(C[C@H]3F)c3cc(C4(F)CC4)ccc3C2=O)nc1 [Example 3, 2-[(2′R,4S)-2′-fluoro-6-(1-fluorocyclopropyl)-1-oxospiro[3H-isoquinoline-4,1′-cyclopropane]-2-yl]-N-(5-cyanopyrimidin-2-yl)acetamide]"
< 1000 nM,,,16 nM,"C[C@]1(O)C[C@@H](NC(=O)CN2C[C@]3(C[C@H]3F)c3cc(C4(F)CC4)ccc3C2=O)C1 [Example 4, N-(3-cis-hydroxy-3-methylcyclobutyl)-2-[(2′R,4S)-2′-fluoro-6-(1-fluorocyclopropyl)-1-oxospiro[3H-isoquinoline-4,1′-cyclopropane]-2-yl]acetamide]"
